Earlier results as cited in publication PMC5629142 (Drugs in R&D, 2017).

Details: TBZ co-administered with CYP2D6 inhibitors

Compound: COc1cc2c(cc1OC)[C@@H]1C[C@H](O)[C@@H](CC(C)C)CN1CC2 [α-HTBZ]
- increase in overall exposure: 3 fold
